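Method: 48-hour compound exposure of cells in 96-well plates, five concentrations, linear interpolation of endpoints. Abbreviation: GI50, concentration required for 50% inhibition of growth.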 Active and inactive are the calls of the source. Cut-off read from the data, not from the text of the source: active = GI50 up to about 1.1 µM and inactive = higher.
How the values were obtained:
Test in all cases: inhibition of tumour cell growth, NCI panel, 48 h
A498 = tested on: A498
A549 = tested on: A549
ACHN = tested on: ACHN
CAKI-1 = tested on: CAKI-1
CCRF-CEM = tested on: CCRF-CEM
COLO 205 = tested on: COLO 205
DLD-1 = tested on: DLD-1
DMS-114 = tested on: DMS-114
DMS-273 = tested on: DMS-273
EKVX = tested on: EKVX
HCC 2998 = tested on: HCC 2998
HCT-116 = tested on: HCT-116
HCT-15 = tested on: HCT-15
HL-60 = tested on: HL-60
HOP-62 = tested on: HOP-62
HOP-92 = tested on: HOP-92
HT-29 = tested on: HT-29
IGROV-1 = tested on: IGROV-1
K562 = tested on: K562
KM-20L2 = tested on: KM-20L2
KM12 = tested on: KM12
LOX IMVI = tested on: LOX IMVI
M14 = tested on: M14
M19-MEL = tested on: M19-MEL
MOLT-4 = tested on: MOLT-4
NCI-H226 = tested on: NCI-H226
NCI-H23 = tested on: NCI-H23
NCI-H460 = tested on: NCI-H460
NCI-H522 = tested on: NCI-H522
OVCAR-4 = tested on: OVCAR-4
OVCAR-5 = tested on: OVCAR-5
OVCAR-8 = tested on: OVCAR-8
RPMI-8226 = tested on: RPMI-8226
RXF 393 = tested on: RXF 393
RXF 631 = tested on: RXF 631
SF-268 = tested on: SF-268
SF-295 = tested on: SF-295
SF-539 = tested on: SF-539
SK-MEL-28 = tested on: SK-MEL-28
SK-MEL-2 = tested on: SK-MEL-2
SK-MEL-5 = tested on: SK-MEL-5
SK-OV-3 = tested on: SK-OV-3
SN12C = tested on: SN12C
SNB-19 = tested on: SNB-19
SNB-75 = tested on: SNB-75
SNB-78 = tested on: SNB-78
SR = tested on: SR
SW-620 = tested on: SW-620
TK-10 = tested on: TK-10
U-251 = tested on: U-251
UACC-257 = tested on: UACC-257
UACC-62 = tested on: UACC-62
UO-31 = tested on: UO-31
XF498 = tested on: XF498

CC1CC(c2ccc([N+](=O)[O-])cc2)=Nc2ccccc2[S+]1[O-] (centres undefined)
GI50 (A498): 18.2 µM (inactive) | GI50 (A549): 20 µM (inactive) | GI50 (ACHN): 21.3 µM (inactive) | GI50 (CAKI-1): 20.9 µM (inactive) | GI50 (CCRF-CEM): 11 µM (inactive) | GI50 (COLO 205): 18 µM (inactive) | GI50 (DLD-1): 14.3 µM (inactive) | GI50 (DMS-114): 18.4 µM (inactive) | GI50 (DMS-273): 19 µM (inactive) | GI50 (EKVX): 23.4 µM (inactive) | GI50 (HCC 2998): 21.8 µM (inactive) | GI50 (HCT-116): 2.11 µM (inactive) | GI50 (HCT-15): 14.6 µM | GI50 (HL-60): 15.1 µM (inactive) | GI50 (HOP-62): 26.1 µM (inactive) | GI50 (HOP-92): 33.1 µM (inactive) | GI50 (HT-29): 12.9 µM (inactive) | GI50 (IGROV-1): 15.6 µM (inactive) | GI50 (K562): 17.5 µM (inactive) | GI50 (KM-20L2): 16.1 µM (inactive) | GI50 (KM12): 13 µM (inactive) | GI50 (LOX IMVI): 12.1 µM (inactive) | GI50 (M14): 18.1 µM (inactive) | GI50 (M19-MEL): 15.9 µM (inactive) | GI50 (MOLT-4): 24.8 µM (inactive) | GI50 (NCI-H226): 29.2 µM (inactive) | GI50 (NCI-H23): 17.6 µM (inactive) | GI50 (NCI-H460): 17.1 µM (inactive) | GI50 (NCI-H522): 12.2 µM (inactive) | GI50 (OVCAR-4): 21.6 µM (inactive) | GI50 (OVCAR-5): 26.5 µM (inactive) | GI50 (OVCAR-8): 15.5 µM (inactive) | GI50 (RPMI-8226): 4.58 µM (inactive) | GI50 (RXF 393): 11.1 µM (inactive) | GI50 (RXF 631): 20.8 µM (inactive) | GI50 (SF-268): 20.1 µM (inactive) | GI50 (SF-295): 21.4 µM (inactive) | GI50 (SF-539): 21.8 µM (inactive) | GI50 (SK-MEL-28): 20 µM (inactive) | GI50 (SK-MEL-2): 44.5 µM (inactive) | GI50 (SK-MEL-5): 15.5 µM (inactive) | GI50 (SK-OV-3): 23 µM (inactive) | GI50 (SN12C): 37.6 µM (inactive) | GI50 (SNB-19): 18.2 µM (inactive) | GI50 (SNB-75): 21.4 µM (inactive) | GI50 (SNB-78): 43.6 µM (inactive) | GI50 (SR): 22.5 µM (inactive) | GI50 (SW-620): 15.3 µM (inactive) | GI50 (TK-10): 27 µM (inactive) | GI50 (U-251): 13.6 µM (inactive) | GI50 (UACC-257): 20.2 µM (inactive) | GI50 (UACC-62): 17.7 µM (inactive) | GI50 (UO-31): 13 µM (inactive) | GI50 (XF498): 28.7 µM (inactive)

Source: ChEMBL document CHEMBL1201862, “PubChem BioAssay data set” (2004)
